Source: patent US20070238770A1, “PROCESS FOR PREPARING NOVEL CRYSTALLINE FORMS OF PELIGLITAZAR, NOVEL STABLE FORMS PRODUCED THEREIN AND FORMULATIONS” (Bristol-Myers Squibb Company, priority 2006, published 2007)

Key:
Solubility in water = format: physicochemical; conditions: final pH 7.6
[1] = Solid state stability under storage conditions (DSC, PXRD, HPLC); conditions: for solid state stability (physically and chemically): RT/RL, 25° C./60% RH, 40° C./75% RH, 50° C., up to 2 weeks, DSC, PXRD, HPLC analysis
[2] = Moisture-sorption isotherm; format: physicochemical; conditions: from 25 to 75% RH at 25° C.
Protocol: Moisture sorption isotherms were collected in a VTI SGA-100 Symmetric Vapor Analyzer using approximately 10 mg of sample. The sample was dried at 60° C. until the loss rate of 0.0005 wt %/min was obtained for 10 minutes. The sample was tested at 25° C. and 3 or 4, 5, 15, 25, 35, 45, 50, 65, 75, 85, and 95% RH. Equilibration at each RH was reached when the rate of 0.0003 wt %/min for 35 minutes was achieved or a maximum of 600 minutes.

[3] = Mechanical stress on crystal form; format: physicochemical; conditions: mechanical stress applied

SMILES	solubility in water (Solubility in water)	solid state stability (physically and chemically) [1]	moisture uptake (hygroscopicity) [2]	conversion of N-1 form to the N-2 form under mechanical stress [3]	conversion of the N-1 form to the N-2 form (PXRD analysis) ([1]; under the storage conditions of b18)
COc1ccc(OC(=O)N(CC(=O)O)[C@@H](C)c2ccc(OCCc3nc(-c4ccccc4)oc3C)cc2)cc1.NCCCC[C@H](N)C(=O)O	greater than 124 mg/mL	stable	–	–	–
COc1ccc(OC(=O)N(CC(=O)O)[C@@H](C)c2ccc(OCCc3nc(-c4ccccc4)oc3C)cc2)cc1 [Form N-1, peliglitazar]	–	stable	negligible	will not cause conversion	no conversion
